Laboratory results published in US20050074810A1, “Method for non-invasilvely determining the relative levels of two biological substances” (priority 2001, published 2005).

Assay: In vitro reverse iontophoretic extraction of valproate and glutamate (Example 1)
Format: in vitro ADME, pig
Details: glutamate 60 μM
Method: The cathodal chamber was sampled only at the end of 5 hours of current passage.
Subsequent to this first period of 5 hours at 0.4 mA, a reduced current of 0.1 mA was passed for the next 19 hours, at the end of which both anodal and cathodal chambers were sampled.
The total experiment therefore lasted 24 hours.

[1] = subdermal valproate 21 μM, 4-5 h, 0.4 mA
[2] = subdermal valproate 21 μM, 5-24 h, 0.1 mA
[3] = subdermal valproate 35 μM, 4-5 h, 0.4 mA
[4] = subdermal valproate 35 μM, 5-24 h, 0.1 mA
[5] = subdermal valproate 70 μM, 4-5 h, 0.4 mA
[6] = subdermal valproate 70 μM, 5-24 h, 0.1 mA
[7] = subdermal valproate 104.5 μM, 4-5 h, 0.4 mA
[8] = subdermal valproate 104.5 μM, 5-24 h, 0.1 mA

N[C@@H](CCC(=O)O)C(=O)O [Glutamate, glutamate]
Transport number (×10^6) (subdermal valproate 21 μM, 0-1 h): 7.89 ± 4.51 ×10^6
Extraction flux (subdermal valproate 21 μM, 0-1 h, 0.4 mA): 118 pmoles · h^−1 · cm^−2
Transport number (×10^6) (subdermal valproate 21 μM, 1-2 h): 20.6 ± 7.92 ×10^6
Extraction flux (subdermal valproate 21 μM, 1-2 h, 0.4 mA): 308 pmoles · h^−1 · cm^−2
Transport number (×10^6) (subdermal valproate 21 μM, 2-3 h): 29.5 ± 7.38 ×10^6
Extraction flux (subdermal valproate 21 μM, 2-3 h, 0.4 mA): 440 pmoles · h^−1 · cm^−2
Transport number (×10^6) (subdermal valproate 21 μM, 3-4 h): 32.1 ± 5.77 ×10^6
Extraction flux (subdermal valproate 21 μM, 3-4 h, 0.4 mA): 479 pmoles · h^−1 · cm^−2
Extraction flux [1]: 570 pmoles · h^−1 · cm^−2
Transport number (×10^6) [1]: 38.2 ± 5.19 ×10^6
Extraction flux [2]: 142 pmoles · h^−1 · cm^−2
Transport number (×10^6) [2]: 38.1 ± 6.24 ×10^6
Transport number (×10^6) (subdermal valproate 35 μM, 0-1 h): 10.4 ± 5.47 ×10^6
Extraction flux (subdermal valproate 35 μM, 0-1 h, 0.4 mA): 155 pmoles · h^−1 · cm^−2
Transport number (×10^6) (subdermal valproate 35 μM, 1-2 h): 24.6 ± 5.83 ×10^6
Extraction flux (subdermal valproate 35 μM, 1-2 h, 0.4 mA): 367 pmoles · h^−1 · cm^−2
Transport number (×10^6) (subdermal valproate 35 μM, 2-3 h): 32.4 ± 5.71 ×10^6
Extraction flux (subdermal valproate 35 μM, 2-3 h, 0.4 mA): 484 pmoles · h^−1 · cm^−2
Transport number (×10^6) (subdermal valproate 35 μM, 3-4 h): 38.2 ± 2.84 ×10^6
Extraction flux (subdermal valproate 35 μM, 3-4 h, 0.4 mA): 571 pmoles · h^−1 · cm^−2
Extraction flux [3]: 588 pmoles · h^−1 · cm^−2
Transport number (×10^6) [3]: 39.4 ± 3.28 ×10^6
Extraction flux [4]: 143 pmoles · h^−1 · cm^−2
Transport number (×10^6) [4]: 38.3 ± 4.24 ×10^6
Transport number (×10^6) (subdermal valproate 70 μM, 0-1 h): 5.92 ± 3.03 ×10^6
Extraction flux (subdermal valproate 70 μM, 0-1 h, 0.4 mA): 88 pmoles · h^−1 · cm^−2
Transport number (×10^6) (subdermal valproate 70 μM, 1-2 h): 17.9 ± 6.88 ×10^6
Extraction flux (subdermal valproate 70 μM, 1-2 h, 0.4 mA): 267 pmoles · h^−1 · cm^−2
Transport number (×10^6) (subdermal valproate 70 μM, 2-3 h): 26.0 ± 6.32 ×10^6
Extraction flux (subdermal valproate 70 μM, 2-3 h, 0.4 mA): 388 pmoles · h^−1 · cm^−2
Transport number (×10^6) (subdermal valproate 70 μM, 3-4 h): 33.1 ± 6.80 ×10^6
Extraction flux (subdermal valproate 70 μM, 3-4 h, 0.4 mA): 494 pmoles · h^−1 · cm^−2
Extraction flux [5]: 524 pmoles · h^−1 · cm^−2
Transport number (×10^6) [5]: 35.1 ± 5.52 ×10^6
Extraction flux [6]: 146 pmoles · h^−1 · cm^−2
Transport number (×10^6) [6]: 39.2 ± 6.45 ×10^6
Transport number (×10^6) (subdermal valproate 104.5 μM, 0-1 h): 9.92 ± 4.20 ×10^6
Extraction flux (subdermal valproate 104.5 μM, 0-1 h, 0.4 mA): 148 pmoles · h^−1 · cm^−2
Transport number (×10^6) (subdermal valproate 104.5 μM, 1-2 h): 24.2 ± 4.79 ×10^6
Extraction flux (subdermal valproate 104.5 μM, 1-2 h, 0.4 mA): 361 pmoles · h^−1 · cm^−2
Transport number (×10^6) (subdermal valproate 104.5 μM, 2-3 h): 32.8 ± 3.60 ×10^6
Extraction flux (subdermal valproate 104.5 μM, 2-3 h, 0.4 mA): 490 pmoles · h^−1 · cm^−2
Transport number (×10^6) (subdermal valproate 104.5 μM, 3-4 h): 37.9 ± 4.98 ×10^6
Extraction flux (subdermal valproate 104.5 μM, 3-4 h, 0.4 mA): 566 pmoles · h^−1 · cm^−2
Extraction flux [7]: 599 pmoles · h^−1 · cm^−2
Transport number (×10^6) [7]: 40.1 ± 5.16 ×10^6
Extraction flux [8]: 157 pmoles · h^−1 · cm^−2
Transport number (×10^6) [8]: 42.2 ± 6.22 ×10^6
